Assay results taken from patent publication US20210401929A1 (Northeast Normal University, priority 2020, published 2021).

Tested on: lung inflammation mice model
Assay: LPS lung inflammation mice model, inflammatory factor mRNA in lung by real-time PCR
Assay type: in vivo
Conditions: intranasal, peptide alone without LPS

`N=C(N)NCCC[C@H](NC(=O)[C@H](CCCNC(=N)N)NC(=O)[C@H](CCCNC(=N)N)NC(=O)[C@H](CCC(N)=O)NC(=O)[C@H](CCCNC(=N)N)NC(=O)[C@H](CCCNC(=N)N)NC(=O)[C@H](CCCCN)NC(=O)[C@H](CCCCN)NC(=O)[C@H](CCCNC(=N)N)NC(=O)CNC(=O)[C@@H](N)Cc1ccc(O)cc1)C(=O)O` [TAT] was tested, and the “inflammation in the lungs of mice treated with peptide alone (inflammatory factor mRNA)” value was “do not cause inflammation”.
